US9212143B2, “Small molecule inhibitors of protein kinases” (priority 2010, dated 2015)

Assays:
Format in all cases: cell-based, human
[1] = test system: TNF/antineutrophil cytoplasmic antibody stimulated neutrophils; assay: Respiratory burst in TNF/antineutrophil cytoplasmic antibody stimulated neutrophils (cytochrome c reduction); conditions: 10 ug/ml compound, TNFα 200 ng/ml, anti-MPO or anti-Pr3; FIGS. 5 and 6
Protocol: During the respiratory burst of activated neutrophils, reactive oxygen intermediates such as superoxide anion, hydroxyl radical, and hydrogen peroxide are produced. To determine the ability of compounds to affect syk dependent respiratory burst, superoxide anion production was measured in a microplate assay using the reduction of cytochrome c as a reporter assay. Respiratory burst can be induced through two different syk dependent signaling pathways, integrin mediated and Fc Receptor mediated. Compounds were tested in both pathways.
For respiratory burst assays, neutrophils (1×10^6) were added to microtiter plates that were coated with fibrinogen for integrin signaling or uncoated for Fc receptor signaling. […] At the end of the incubations, reduction of cytochrome c was quantified by measuring absorbance at 550 nm using a microplate reader. […]
(§1) Neutrophils were isolated from healthy human donors using Polymorphprep (Axis Shield). […] Reduction of cytochrome c was measured by reading absorbance at 550 nm with a 490 nm reference in a spectrophotometer. […]
as §1

[2] = test system: neutrophils; assay: Zymosan phagocytosis by neutrophils (CytoSelect 96-Well Phagocytosis Assay); conditions: 10 ug/ml compound, zymosan 1.5 hrs; FIG. 10
Protocol: Inhibition of phagocytosis was carried out using the CytoSelect™ 96-Well Phagocytosis Assay (Cell Biolabs, Inc). The phagocytic target was zymosan (Saccharomyces cerevisiae), made from yeast cell wall. For this assay, neutrophils were seeded onto fibrinogen coated wells in the presence of inhibitor. Zymosan was added, and reactions incubated for 1.5 hr. Phagocytosis was detected by permeabilizing the cells and adding a detection reagent that was quantified colorimetrically in a plate reader at 405 nm.
Neutrophils were isolated from healthy human donors using Polymorphprep (Axis Shield). Cells were equilibrated for 15 minutes at 37° C. in the presence or absence of 10 ug/ml compound, then plated into 96 well plates previously coated with 2 ng/ml fibrinogen. The subsequent phagocytosis assay was carried out using a commercial phagocytosis assay (CytoSelect™ 96-Well Phagocytosis Assay (Zymosan), Cell Biolabs.) Briefly, cells were incubated with zymosan at 37° C. for 1.5 hrs., fixed with 8% formaldehyde for 5 minutes at room temperature, blocked, permeabilized and detection reagent added which detects phagocytosed zymosan. The reaction was developed by adding a substrate and the resulting colorimetric product was detected in a plate reader. ODs were corrected for relative confluence of the cells based on a visual estimate of confluence. Results are reported as corrected ODs.

[3] = test system: syk phosphorylation in integrin/TNF stimulated neutrophils; assay: syk phosphorylation in integrin/TNF stimulated neutrophils (in cell Western); conditions: 10 ug/ml compound, TNFα 200 ng/ml, 1 hr; FIG. 11
Protocol: Inhibition of syk phosphorylation was tested using the FACEMaker in cell Western Blot kit from Active Motif (Carlsbad, Calif.). In this assay, freshly isolated neutrophils were plated onto fibrinogen coated wells and stimulated with TNF at 200 ng/ml. After 1 hr., cells were fixed in formaldehyde and the Western Blot performed according to the kit instructions, with the final colorimetric product read in a plate reader. Results were corrected for cell number by subsequent staining of the cells with crystal violet and recording OD at 630 nm.
Neutrophils were isolated from healthy human donors using Polymorphprep (Axis Shield). Cells were equilibrated for 15 minutes at 37° C. in the presence or absence of 10 ug/ml compound. TNFα was added to a concentration of 200 ng/ml and cells dispensed into a 96 well strip plate previously coated with 2 mg/ml fibrinogen at 1×10^6 cells/well. Reactions were incubated at 37° C. for 1 hr., and cells fixed with 4% formaldehyde for 20 minutes at room temperature. […] The reaction was developed using the kit developing solution and the resulting colorimetric product read in a plate reader at 450 nm with a 650 nm reference. […]

N#Cc1c(C(F)(F)F)cc(-c2ccc(Br)cc2)nc1SC(C(=O)O)c1ccccc1 (stereo not drawn) [Compound 1, α-[[6-(4-bromophenyl)-3-cyano-4-(trifluoromethyl)-2-pyridinyl]thio]-benzeneacetic acid]
respiratory burst in TNF/antineutrophil cytoplasmic antibody stimulated neutrophils [1]: stimulation
inhibition of zymosan phagocytosis by neutrophils [2]: inhibition
inhibition of syk phosphorylation in integrin/TNF stimulated neutrophils [3]: inhibition
